One series has as its system tumor. Particulars: preclinical studies in mice; cited from earlier work.
In series [1] the test system is BET family of bromodomain proteins. Particulars: cited from earlier work.
Another series deals with acute myeloid leukemia. Particulars: cited from earlier work.
The next series has as its system MV4-11 cells. Nature of the series: Cell viability assay (CellTiter-Glo), 12 days. Particulars: Homo sapiens, readouts on days 4, 8 and 12, day not given. The format is cell-based. The procedure:
Cell-based assays were used to assess the ability of test compounds to reduce cell viability in both MV4:11 (MLL-AF4 MLL) and K562 cells, which were cultured in Iscove's Modified Dulbecco's medium (Gibco, 12440061) containing […]. The assays were conducted over 12 days and the cells being split on days 4 and 8. Compound concentration response curves were performed in duplicate over the concentration range of 0.15 nM-30 uM. On day 0, the compounds or vehicle were plated in a 300 nL directly into 96 well cell culture plates (Corning, 3599) with 5000 cells/well in a volume of 100 uL. Blank wells received cell culture medium. Plates were incubated for 4 days at 37° C. with 5% CO2. On days 4 and day 8 the cells were split and incubated for a further 4 days whilst an aliquot of cells were taken for the CTG readout. For the cell splitting, 270 nL of compounds or DMSO was added to a new 96 well cell culture plate to which 90 uL of medium plus 10 uL of cells from the original assay plate (after mixing) or 100 uL of medium (Blank wells) was added. This was repeated on day 8.
Cell viability was assessed using the CellTiter-Glo® homogeneous luminescent assay kit (Promega, G9243), according to the manufacturer's instructions. This quantifies ATP, which indicates the presence of metabolically active cells. On days 4, 8 and 12, 20 ul of the remaining cell suspension was aspirated into 384-well plate (Corning 3570) to which an equal volume CellTiter-Glo reagent was. Plates were incubated for 10 minute incubation at RT prior to recording the luminescence signal using EnVision plate reader (PE, 2104). The resulting data were analyzed as follows:
Inhibition (%)=100%×(Lumvehicie−Lumsample)/(Lumvehicle−Lumblank)
where vehicle are cells treated with 0.3% DMSO, Blank is culture medium. IC50 determinations were calculated by fitting the curve using XLfit (v5.3.1.3): Y=Bottom+(Top−Bottom)/(1+10^((Log IC50−X)*HillSlope)).

Series [2] addresses T1, ENL YEATS domain (6×HIS ENL YEATS Domain) binding to H3K9cr peptide (Homo sapiens, UniProt Q03111).
T1 construct: aa1-150; EpiCypher, 15-0069; purchased EpiCypher 15-0069
T1 sequence (Q03111 1-150): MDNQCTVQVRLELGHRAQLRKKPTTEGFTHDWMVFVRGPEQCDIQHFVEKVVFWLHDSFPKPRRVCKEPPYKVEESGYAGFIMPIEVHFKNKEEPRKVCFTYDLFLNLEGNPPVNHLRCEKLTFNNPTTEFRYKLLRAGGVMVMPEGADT
Kind of series: TR-FRET ENL Screening Assay, FRET Assay Protocol 1. Conditions: H3K9cr peptide (aa1-20). The method, then:
Compounds of the invention were dissolved in DMSO at a concentration of 3 mM with subsequent dilutions in assay buffer (50 mM HEPES PH7.0, 150 mM NaCl, 0.05% BSA, 0.2% Pluronic F-127) such that the assay contained 1% DMSO. […] Low control (LC) wells received 5 uL of assay buffer instead of ENL protein. […] Compound concentration response curves were performed in duplicate over the concentration range of 0.15 nM-30 uM. The response at each compound concentration minus the LC value was converted to percent inhibition of the vehicle control group response (HC-LC). The relationship between the % inhibition and the compound concentration was analyzed using a four parameter logistic equation to estimate lower and upper asymptotes, the compound concentration producing 50% inhibition (IC50 value) and the slope at the mid-point location.

The test system of series [3] is myeloma tumors; leukemic engraftment of patient-derived primary samples. Particulars: mice, cited from earlier work.

Regarding `CCn1nc(C2CC2)cc1Nc1nc(C(=O)NCCCOCCOCCOCCCNc2cccc3c2C(=O)N(C2CCC(=O)NC2=O)C3=O)nc2[nH]c3cc(-c4c(C)noc4C)c(OC)cc3c12` (centres unmarked) [BET-d246], the anti-tumor activity entry in the series with tumor was “strong anti-tumor activity”. For the compound `Cc1sc2c(c1C)C(c1ccc(Cl)cc1)=N[C@@H](CC(=O)OC(C)(C)C)c1nnc(C)n1-2` [JQ1], the “inhibition of BET bromodomain proteins” value in series [1] is “potent inhibitor”. Regarding `CCS(=O)(=O)Nc1ccc(Oc2ccc(F)cc2F)c(-c2cn(C)c(=O)c3[nH]ccc23)c1` [Mivebresib], the antileukemic effects result in the series on acute myeloid leukemia (patients with relapsed and refractory AML) was “showed antileukemic effects”. For the same compound, the tolerability entry in the series with acute myeloid leukemia (phase 1 study, patients with solid tumors and AML) was “well tolerated”.

On to `COCCn1cc(-c2ccc(C(=O)Nc3cc4[nH]c(CN5CCC[C@@H]5C)cc4cn3)cc2)cn1` [Example 51], for which the IC50 in the series on MV4-11 cells turned out to be 0.077 µM; in series [2], 187 nM.

In the case of `C[C@H]1CCCN1Cc1cc2cnc(NC(=O)c3ccc4c(C5CC5)nn(C)c4c3)cc2[nH]1` [Example 56], the half-maximal inhibitory concentration (IC50) in the series with MV4-11 cells turned out to be 0.044 µM; in series [2], 78 nM. For the compound `C[C@H]1CCCN1Cc1cc2cnc(NC(=O)c3ccc(-c4cnn(C)c4)cc3)cc2[nH]1` [Example 21, 4-(1-methylpyrazol-4-yl)-N-(2-[[(2S)-2-methylpyrrolidin-1-yl]methyl]-1H-pyrrolo[3,2-c]pyridin-6-yl)benzamide], the IC50 in the series on MV4-11 cells was 0.301 µM; in series [2] it was 250 nM. With `C[C@H]1CCCN1Cc1cc2cnc(NC(=O)c3ccc4c(N)nccc4c3)cc2[nH]1` [Example 82], the half-maximal inhibitory concentration (IC50) with MV4-11 cells turned out to be 0.454 µM; in series [2], 33 nM. For the compound `C[C@H]1CCCN1Cc1cc2cnc(NC(=O)c3ccc4c(c3)CNC(=O)N4C)cc2[nH]1` [Example 98], the IC50 with MV4-11 cells is 1.06 µM; in series [2], 330 nM. On to `Cc1nn(C)c2ccc(C(=O)Nc3cc4[nH]c(CN5CCC[C@@H]5C)cc4cn3)cc12` [Example 6], for which the results for the IC50 (in the series on MV4-11 cells; in series [2]) were 0.061 µM and 133 nM, respectively. For `C[C@H]1CCCN1Cc1cc2cnc(NC(=O)c3ccc4c(c3)[nH]c(=O)n4C)cc2[nH]1` [Example 93], the figures for the IC50 (in the series with MV4-11 cells; in series [2]) were 0.181 µM and 97 nM, respectively. For the compound `COc1cc2c(cc1-c1c(C)noc1C)ncc1[nH]c(=O)n([C@H](C)c3ccccn3)c12` [I-BET 151], the “leukemic engraftment and disease burden” value in series [3] (in vivo, patient-derived primary samples) is “impairs the leukemic engraftment of patient-derived primary samples and lowers the disease burden”. In series [3], the “effect on myeloma tumors” value is on record as “reduced myeloma tumors”. For the compound `C[C@H]1CCCN1Cc1cc2cnc(NC(=O)c3ccc(-c4cn[nH]c4)cc3)cc2[nH]1` [Example 42, N-(2-[[(2S)-2-methylpyrrolidin-1-yl]methyl]-1H-pyrrolo[3,2-c]pyridin-6-yl)-4-(1H-pyrazol-4-yl)benzamide], the IC50 was 0.109 µM in the series on MV4-11 cells and 161 nM in series [2]. Regarding `C[C@H]1CCCN1Cc1cc2cnc(NC(=O)c3ccc4c(NCC(F)F)nn(C)c4c3)cc2[nH]1` [Example 95, 3-[(2,2-difluoroethyl)amino]-1-methyl-N-(2-[[(2S)-2-methylpyrrolidin-1-yl]methyl]-1H-pyrrolo[3,2-c]pyridin-6-yl)indazole-6-carboxamide], the figures for the half-maximal inhibitory concentration (IC50) (in the series on MV4-11 cells; in series [2]) were 0.704 µM and 160 nM, respectively. On to `C[C@H]1CCN1Cc1cc2cnc(NC(=O)c3ccc4[nH]nc(C5CC5)c4c3)cc2[nH]1` [Example 73, 3-cyclopropyl-N-(2-[[(2S)-2-methylazetidin-1-yl]methyl]-1H-pyrrolo[3,2-c]pyridin-6-yl)-1H-indazole-5-carboxamide], for which the IC50 stood at 0.684 µM with MV4-11 cells and 238 nM in series [2]. In the same order, the values of `Cn1ncc2cc(C(=O)Nc3cc4[nH]c(CN5CC6(COC6)C5)cc4cn3)ccc21` [Example 46] are 1.22 µM and 306 nM. For `Cc1noc2cc(C(=O)Nc3cc4[nH]c(CN5CCC[C@@H]5C)cc4cn3)ccc12` [Example 1, (S)-3-methyl-N-(2-((2-methylpyrrolidin-1-yl)methyl)-1H-pyrrolo[3,2-c]pyridin-6-yl)benzo[d]isoxazole-6-carboxamide], in that order: 0.057 µM and 143 nM. Take `C[C@H]1CCCN1Cc1cc2cnc(NC(=O)c3ccc4[nH]nc(C5CC5)c4c3)cc2[nH]1` [Example 48]: the IC50 in the series with MV4-11 cells amounted to 0.057 µM; in series [2] it was 140 nM.

These data come from patent publication US20230027198A1 (The Rockefeller University, priority 2019, published 2023).
